Experimental data reported in PMC12409821, “Synthesis and Characterization of Co(II), Cu(II), and Ni(II) Complexes of 2,2′‐Bipyridine‐4,4′‐Dicarboxamide Ligands: Antibacterial Evaluation Against Resistant Bacteria and Enzyme Inhibition” (ChemistryOpen, 2025).

What was measured:
[1] = target: T1, pancreatic lipase (Homo sapiens, UniProt P16233); assay: In vitro lipase inhibition assay; assay type: biochemical
T1 sequence (P16233 17-465): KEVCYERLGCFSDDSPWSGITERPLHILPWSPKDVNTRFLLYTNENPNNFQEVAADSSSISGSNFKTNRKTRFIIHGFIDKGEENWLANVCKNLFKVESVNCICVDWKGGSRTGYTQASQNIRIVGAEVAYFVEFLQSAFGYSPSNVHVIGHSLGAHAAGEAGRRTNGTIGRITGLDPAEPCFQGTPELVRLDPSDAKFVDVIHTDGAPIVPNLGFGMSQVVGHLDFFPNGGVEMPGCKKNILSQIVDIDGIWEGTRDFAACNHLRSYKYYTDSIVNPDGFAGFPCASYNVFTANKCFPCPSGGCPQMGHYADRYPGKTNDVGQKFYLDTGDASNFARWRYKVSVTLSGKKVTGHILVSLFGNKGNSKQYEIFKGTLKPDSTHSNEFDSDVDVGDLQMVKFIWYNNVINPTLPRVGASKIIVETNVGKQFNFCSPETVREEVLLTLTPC
Description: (§1) In cholinesterase activity measurements, the method reported by Karagecili and coworkers was used with minor modifications.^[ [23] ^] Here, acetylchoiniodate was used as a substrate for both enzymes. Lipase enzyme activity measurement was performed according to the method reported by Bulut.^[ [24] ^] In inhibition studies, measurements were made at at least five different concentrations of the molecules synthesized. %activity values were calculated by accepting enzyme activity measurements without inhibitor as 100%. Then, molecule concentrations were plotted against Activity% values.

[2] = target: butyrylcholinesterase (BChE) (Homo sapiens, UniProt P06276); assay: biochemical; details: at least five concentrations
butyrylcholinesterase (BChE), sequence (P06276 29-602, species assumed): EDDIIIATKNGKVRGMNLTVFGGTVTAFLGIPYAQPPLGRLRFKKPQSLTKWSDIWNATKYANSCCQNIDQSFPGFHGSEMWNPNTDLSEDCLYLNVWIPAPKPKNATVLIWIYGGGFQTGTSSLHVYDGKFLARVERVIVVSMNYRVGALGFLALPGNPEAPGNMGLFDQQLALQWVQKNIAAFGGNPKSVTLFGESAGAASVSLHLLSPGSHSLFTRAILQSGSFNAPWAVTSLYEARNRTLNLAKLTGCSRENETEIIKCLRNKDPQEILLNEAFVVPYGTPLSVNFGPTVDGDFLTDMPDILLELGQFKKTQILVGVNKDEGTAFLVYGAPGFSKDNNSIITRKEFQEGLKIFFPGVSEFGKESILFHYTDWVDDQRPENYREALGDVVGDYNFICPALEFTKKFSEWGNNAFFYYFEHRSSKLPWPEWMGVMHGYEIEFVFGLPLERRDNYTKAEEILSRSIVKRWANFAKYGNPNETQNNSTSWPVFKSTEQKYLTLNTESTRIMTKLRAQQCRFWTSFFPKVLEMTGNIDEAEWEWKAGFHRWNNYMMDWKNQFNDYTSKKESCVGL
Description: as §1

[3] = target: acetylcholinesterase (AChE) (Homo sapiens, UniProt P22303); assay: biochemical; details: at least five concentrations
acetylcholinesterase (AChE), sequence (P22303 32-614, species assumed): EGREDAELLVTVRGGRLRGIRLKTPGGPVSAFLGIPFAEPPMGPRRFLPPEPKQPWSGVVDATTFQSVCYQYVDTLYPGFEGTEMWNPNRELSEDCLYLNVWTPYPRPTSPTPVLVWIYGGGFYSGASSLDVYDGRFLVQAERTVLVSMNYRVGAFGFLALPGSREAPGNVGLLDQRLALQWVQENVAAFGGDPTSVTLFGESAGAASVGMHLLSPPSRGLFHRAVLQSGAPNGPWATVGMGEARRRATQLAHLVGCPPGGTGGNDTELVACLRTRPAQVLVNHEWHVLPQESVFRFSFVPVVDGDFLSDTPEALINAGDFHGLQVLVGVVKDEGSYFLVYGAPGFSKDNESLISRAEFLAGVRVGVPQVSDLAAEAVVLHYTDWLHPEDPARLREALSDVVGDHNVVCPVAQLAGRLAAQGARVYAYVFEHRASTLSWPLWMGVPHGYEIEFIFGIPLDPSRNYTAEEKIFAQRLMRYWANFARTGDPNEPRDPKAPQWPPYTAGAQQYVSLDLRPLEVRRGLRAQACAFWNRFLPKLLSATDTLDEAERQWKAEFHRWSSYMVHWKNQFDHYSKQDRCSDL
Description: as §1

SMILES: O=C(NCc1ccccn1)c1ccnc(-c2cc(C(=O)NCc3ccccn3)ccn2)c1 [L1, N4,N4′‐bis(pyridin‐2‐ylmethyl)‐[2,2′‐bipyridine]‐4,4′‐dicarboxamide]
- Effect on lipase in the concentration ranges studied ([1]; no IC50 given in Table 5): did not show a linear effect
- IC50 [2]: 68.1 µM
- IC50 [3]: 173 µM

SMILES: O=C(NCC1CCCCN1)c1ccnc(-c2cc(C(=O)NCC3CCCCN3)ccn2)c1 (stereo not drawn) [L2, N4,N4′‐bis(piperidin‐2‐ylmethyl)‐[2,2′‐bipyridine]‐4,4′‐dicarboxamide]
- IC50 ([1]; at least five concentrations): 24.1 µM
- IC50 [2]: 8.83 µM
- IC50 [3]: 10.2 µM
